Results: patent US20130231309A1, “TREATMENT OF INFLAMMATION AND ORGAN DYSFUNCTION” (THE REGENTS OF THE UNIVERSITY OF CALIFORNIA, priority 2005, published 2013)
Blank lines part the entries; values can stand above or below the molecule they belong to.

Tests used:
[1] = tested on: MMP-1 (collagenase-1) and MMP-9 (gelatinase B); assay: In-vivo zymography of mesentery with fluorogenic substrate; design: species or system rat; conditions: EDTA 5 mM applied to mesentery
Procedure: Measurement of MMP-1,9 activity was obtained by superfusion of the mesentery with fluorogenic substrate (0.5 μmol/L; catalogue number D2293, Sigma-Aldrich Inc., St. Louis, Mo.) added to the suffusate. The substrate was cleaved by MMP-1 (collagenase-1) and MMP-9 (gelatinase B). The mesentery was loaded with substrate 10 minutes prior to image collection and continuously suffused with substrate throughout the experiment. The associated fluorescence was visualized by epi-illumination at 280 nm passing through a 340 nm emission filter on a fluorescent intravital microscope (Leica), and recorded digitally for measurement of fluorescent intensity. Light intensity of the emitted fluorescent light was recorded in digital units (1-256) after subtraction of background intensity in the absence of the tissue with standardized microscope settings. Reproducibility of these measurements as determined by repeated measurements on the same specimen was within 3%.

[2] = Thymus weight normalized to body weight; format: in vivo, rat; conditions: chronic doxycycline, n = 5
Excerpt: The reduced apoptosis in the thymus by MMP blockade is also confirmed by direct measurements of the organ weight (shown in Table 6).

[3] = tested on: plasma proteases (metallo-, serine, acid and sulfhydryl proteases); assay: Plasma protease activity (fluorescent protease assay kit, Enzchek); format: in vivo, rat; conditions: after MMP inhibition for 12 weeks, age 30 weeks
Procedure: Fresh plasma samples were frozen (−60 C) until measurements were taken. On the day of the experiment, the samples were unfrozen and tested simultaneously for overall protease activity with fluorescent protease assay kit (Enzchek, Cat #E-6638, Molecular Probes). The substrate was cleaved by a range of proteases (metallo-, serine, acid and sulfhydryl proteases). Protease activity was determined from fluorescent intensity after peptide cleavage (in fluorescent units). In another experiment, and in order to explore the utility of chronic protease inhibition, a group of mature normotensive Wistar Kyoto rats (as well as a cohort of spontaneously hypertensive rats) were treated with a broad acting metafloproteases inhibitor (doxycycline, 55 mg/liter in drinking water, average consumption ˜5.4 mg/kg/day) over a period of 12 weeks until the age of 30 weeks.

[4] = Blood cell counts (hematocrit, total leukocyte count); format: in vivo, rat; conditions: for Leukocyte Count: doxycycline in drinking water
Procedure: Selected WKY and SHR were treated with doxycycline (55 mg/liter in drinking water, average consumption ˜5.4 mg/kg/day, West-Ward Pharmaceutical Corp., Eatontown, N.J.) for a period of 24 weeks. It should be noted that lower and higher concentrations are also effective. A range of effective does of about 1.0-20.0 mg/kg/day, resulting from the dissolution of about 5.5-220 mg of an MMP inhibitor per liter, may also be used to produce an effective result. Narrower ranges of MMP solute may also be used, for example, 75-180 mg, and 100 mg-150 mg. Fresh leukocytes were fixed on a blood smear in whole blood (using heparin as anticoagulant, 10 U/ml) with formalin solution and […] (10%, neutral buffered, 1 hr). Total leukocyte count was determined with a hemocytometer, and hematocrit was centrifuged in microhematocrit tubes. Neutrophils were separated in a density gradient (Histopaque-1077, Sigma Aldrich, spun at 42 g for 5 min).

[5] = WKY and SHR central hemodynamics (arterial blood pressure via femoral artery catheter, heart rate) after chronic doxycycline; format: in vivo, rat; conditions: for Mean Blood Pressure: doxycycline 55 mg/liter in drinking water (~5.4 mg/kg/day); for Diastolic Blood Pressure / Heart Rate / Systolic Blood Pressure: doxycycline in drinking water; for Mean Arterial Blood Pressure during Chronic MMP Inhibition: after MMP inhibition for 12 weeks, age 30 weeks
Procedure: Selected WKY and SHR were treated with doxycycline (55 mg/liter in drinking water, average consumption ˜5.4 mg/kg/day, West-Ward Pharmaceutical Corp., Eatontown, N.J.) for a period of 24 weeks. It should be noted that lower and higher concentrations are also effective. A range of effective does of about 1.0-20.0 mg/kg/day, resulting from the dissolution of about 5.5-220 mg of an MMP inhibitor per liter, may also be used to produce an effective result. Narrower ranges of MMP solute may also be used, for example, 75-180 mg, and 100 mg-150 mg. The ileocecal portion of the mesentery was prepared as described in Delano and Schmid-Schonbein, “The Glucocorticoid and Mineralocorticoid Receptor Distribution in a Microvascular Network of the Spontaneously Hypertensive Rat.” Briefly, arterial blood pressure was recorded via a femoral artery catheter. Individual sectors of mesentery were exposed via an abdominal midline incision while superfused with Krebs-Henseleit buffer (37° C., pH=7.4). The blood pressure of WKY and SHR was reduced by doxycycline treatment as shown below in Table 1, a trend that was detectable in terms of systolic, diastolic or mean blood pressure. […] In another experiment, and in order to explore the utility of chronic protease inhibition, a group of mature normotensive Wistar Kyoto rats (as well as a cohort of spontaneously hypertensive rats) were treated with a broad acting metafloproteases inhibitor (doxycycline, 55 mg/liter in drinking water, average consumption ˜5.4 mg/kg/day) over a period of 12 weeks until the age of 30 weeks.

[6] = tested on: apoptotic cells in thymus, kidney, skeletal muscle; assay: Apoptosis by TUNEL / propidium iodide labeling of frozen tissue sections; format: in vivo, rat; conditions: chronic doxycycline; for Fraction Of Apoptotic Cells, Thymus: tissue area of 10,000 μm^2
Procedure: A subsequent study was performed to consider the reduction of cell apoptosis after chronic MMP inhibition. In addition to the dramatic reduction of blood pressure, free radical production, membrane receptor cleavage and other pathophysiological parameters (described elsewhere) that point towards organ injury in the SHR, cell apoptosis was also considered after MMP inhibition. […] For this purpose, a novel digital technique was introduced to determine nuclear fragmentation on freshly-harvested frozen tissue sections labeled for DNA breaks with the TUNEL technique and with propidium iodide (PI) for the detection of cell nuclei (see FIG. 9). […] PI-positive nuclei (B) are used to identify the total number of cells in the fields. Their image is superimposed on the bright field image of TUNEL-positive nuclei (dark brown color in A) to determine digitally the light absorption due to the TUNEL label (shown in green in panels C) and the level of apoptosis (C).

Fluorescent intensity generated by the fluorogenic substrate [1]: undetectable
Compound: O=C(O)CN(CCN(CC(=O)O)CC(=O)O)CC(=O)O [EDTA, ethylenediaminetetraacetic acid]

Compound: C[C@H]1c2cccc(O)c2C(=O)C2=C(O)[C@]3(O)C(=O)C(C(N)=O)=C(O)[C@@H](N(C)C)[C@@H]3[C@@H](O)[C@@H]21 [doxycycline]
Thymus Weight Normalized With Respect To Body Weight ([2]; SHR): 87.4 ± 3.3 mg/100 g body wt
Thymus Weight Normalized With Respect To Body Weight ([2]; WKY): 81.4 ± 7.4 mg/100 g body wt
Plasma Protease Activity During Chronic MMP Inhibition ([3]; Spontaneously Hypertensive rat): 472 ± 24 FU
Plasma Protease Activity During Chronic MMP Inhibition ([3]; Wistar Kyoto rat): 413 ± 40 FU
Leukocyte count after treatment as share of its usually high count ([4]; SHR group): less than 50%
Leukocyte Count ([4]; SHR): 2532 ± 574
Leukocyte Count ([4]; WKY rats): 2737 ± 272*, **
Mean Blood Pressure ([5]; SHR, n = 7): 126.3 ± 13.5 mmHg
Diastolic Blood Pressure ([5]; SHR): 99.4 ± 17.3 mmHg
Heart Rate ([5]; SHR): 398 ± 60 beats/min
Systolic Blood Pressure ([5]; SHR): 161.9 ± 14.5 mmHg
Mean Arterial Blood Pressure during Chronic MMP Inhibition ([5]; Spontaneously Hypertensive rat): 126.3 ± 13.5 mmHg
Mean Blood Pressure ([5]; WKY rats, n = 6): 95.7 ± 8.5 mmHg
Diastolic Blood Pressure ([5]; WKY rats): 77.4 ± 6.8 mmHg
Heart Rate ([5]; WKY rats): 364 ± 30 beats/min
Systolic Blood Pressure ([5]; WKY rats): 125.3 ± 10.6 mmHg
Arterial pressure after treatment, relative to the Wistar rat ([5]; WKY rats, Wistar rat about 105 mmHg): < 105 mmHg
Mean Arterial Blood Pressure during Chronic MMP Inhibition ([5]; Wistar Kyoto rat): 95.7 ± 8.5 mmHg
Fraction Of Apoptotic Cells, Kidney ([6]; SHR): 12.8 ± 5.2%
Fraction Of Apoptotic Cells, Skeletal muscle ([6]; SHR): 1.7 ± 2.4 %
Fraction Of Apoptotic Cells, Thymus ([6]; SHR): 13.8 ± 9.1 %
Fraction Of Apoptotic Cells, Kidney ([6]; WKY): 5.1 ± 3.5%
Fraction Of Apoptotic Cells, Skeletal muscle ([6]; WKY): 1.4 ± 1.3%
Fraction Of Apoptotic Cells, Thymus ([6]; WKY): 4.7 ± 3.0%
